Laboratory results as given in patent publication US9527841B2, “Substituted pyrido[2,3-b]pyrazines as phosphodiesterase 2A inhibitors” (Takeda Pharmaceutical Company Limited, priority 2012, dated 2016).

Molecular target: T1, Human PDE2A3 enzyme (Homo sapiens, UniProt O00408)
T1 construct: transfected with the full-length gene; His-tag; made in house; host or cells: Sf9 insect cells
Experiment: PDE Enzyme Inhibition Assay (SPA, [3H]cGMP)
Assay type: biochemical
Settings: compound 10 μM; substrate [3H]cGMP 77 nM; 60 min at room temperature; duplicate
Procedure: Human PDE2A3 enzyme was generated from Sf9 cells transfected with the full-length gene. The extracted enzyme from Sf9 cells was purified by His-tag affinity column and gel filtration. The enzyme was stored at −70° C. until use. PDE activity was measured using a SPA (Scintillation Proximity Assay) (GE Healthcare). To evaluate the inhibitory activity, 10 μl of serial diluted compounds were incubated with 20 μl of PDE enzyme in assay buffer (50 mM HEPES-NaOH, 8.3 mM MgCl2, 1.7 mM EGTA, 0.1% BSA (pH 7.4)) at room temperature for 30 min. Final concentration of DMSO in the assay was 1%. The evaluation of the compounds were performed in duplicate in 96-well half-area plates (Corning) or 384-well OptiPlate (PerkinElmer). To start the reaction, 10 μl of substrate [^3H] cGMP (77 nM, PerkinElmer) was added for a final assay volume of 40 μl. After 60 min incubation at room temperature, 20 μl of yttrium SPA beads (20 mg/ml) containing zinc sulphate was added thereto to terminate the PDE reaction. After being settled for additional 1 hr, the assay plates were counted in a scintillation counter (PerkinElmer) to allow calculation of inhibition rate. Inhibition rate was calculated on the basis of 0% control wells with enzyme and DMSO, and 100% control wells without enzyme.

T1 sequence (O00408 whole entry): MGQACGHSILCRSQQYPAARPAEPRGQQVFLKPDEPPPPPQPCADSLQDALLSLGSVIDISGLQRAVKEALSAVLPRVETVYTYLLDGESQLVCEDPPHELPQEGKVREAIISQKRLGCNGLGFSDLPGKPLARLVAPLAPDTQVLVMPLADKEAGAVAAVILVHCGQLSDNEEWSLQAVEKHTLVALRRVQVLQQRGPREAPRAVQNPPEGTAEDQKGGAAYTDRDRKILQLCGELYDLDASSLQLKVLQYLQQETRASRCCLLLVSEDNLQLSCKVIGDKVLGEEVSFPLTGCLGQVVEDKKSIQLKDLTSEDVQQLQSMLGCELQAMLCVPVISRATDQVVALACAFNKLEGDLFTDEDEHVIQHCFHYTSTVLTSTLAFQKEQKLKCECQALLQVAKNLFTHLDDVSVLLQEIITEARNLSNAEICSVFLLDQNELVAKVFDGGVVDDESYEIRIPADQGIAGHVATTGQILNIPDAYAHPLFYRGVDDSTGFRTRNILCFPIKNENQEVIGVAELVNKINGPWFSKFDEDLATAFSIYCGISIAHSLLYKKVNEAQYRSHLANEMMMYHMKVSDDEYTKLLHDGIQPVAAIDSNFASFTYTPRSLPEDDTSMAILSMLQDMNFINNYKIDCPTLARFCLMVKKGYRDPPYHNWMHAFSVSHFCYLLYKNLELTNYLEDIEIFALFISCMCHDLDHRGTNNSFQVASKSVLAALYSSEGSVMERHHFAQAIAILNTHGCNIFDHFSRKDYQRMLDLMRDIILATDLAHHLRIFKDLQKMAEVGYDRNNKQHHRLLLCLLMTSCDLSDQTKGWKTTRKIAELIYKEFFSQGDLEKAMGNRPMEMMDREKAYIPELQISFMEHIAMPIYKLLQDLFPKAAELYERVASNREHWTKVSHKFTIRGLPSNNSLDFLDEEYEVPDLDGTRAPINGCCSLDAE

**Q.** `COc1cnc2c(c1)NC(=O)CN2C(=O)C(Oc1ccc(-n2cccn2)c(F)c1)C(C)C` (centres unmarked) [Example 135, 4-(2-(3-fluoro-4-(1H-pyrazol-1-yl)phenoxy)-3-methylbutanoyl)-7-methoxy-3,4-dihydropyrido[2,3-b]pyrazin-2(1H)-one] was tested. Which inhibition at 10 µM did it give?
**A.** The inhibition at 10 µM was 99%.

**Q.** `CCC(Nc1ccc(OC(F)(F)F)cc1)C(=O)N1CC(=O)Nc2cccnc21` (centres unmarked) [Example 23, 4-(2-((4-(trifluoromethoxy)phenyl)amino)butanoyl)-3,4-dihydropyrido[2,3-b]pyrazin-2(1H)-one] was tested. Which inhibition at 10 µM did it give?
**A.** Its inhibition at 10 µM is 97%.

**Q.** Which inhibition at 10 µM does the source give for `CCC(Oc1ccc(C(F)(F)F)cc1)C(=O)N1CC(=O)Nc2cccnc21` (centres unmarked) [Example 4, 4-(2-(4-(trifluoromethyl)phenoxy)butanoyl)-3,4-dihydropyrido[2,3-b]pyrazin-2(1H)-one] here?
**A.** The inhibition at 10 µM was 98%.

**Q.** For `CCC(Oc1ccc(C(C)C)cc1)C(=O)N1CC(=O)Nc2cccnc21` (centres unmarked) [Example 47, 4-(2-(4-isopropylphenoxy)butanoyl)-3,4-dihydropyrido[2,3-b]pyrazin-2(1H)-one], which inhibition at 10 µM is on record?
**A.** Its inhibition at 10 µM is 98%.

**Q.** Which inhibition at 10 µM does the source give for `O=C1CN(C(=O)[C@@H]2CCCN2c2ccc(OC(F)(F)F)cc2)c2ncccc2N1` [Example 25, 4-(1-(4-(trifluoromethoxy)phenyl)prolyl)-3,4-dihydropyrido[2,3-b]pyrazin-2(1H)-one] here?
**A.** The inhibition at 10 µM was 96%.

**Q.** Which inhibition at 10 µM does the source give for `COCCC(Oc1ccc(OC(F)(F)F)cc1)C(=O)N1CC(=O)Nc2cccnc21` (centres unmarked) [Example 18, 4-(4-methoxy-2-(4-(trifluoromethoxy)phenoxy)butanoyl)-3,4-dihydropyrido[2,3-b]pyrazin-2(1H)-one] here?
**A.** The inhibition at 10 µM was 99%.

**Q.** For `CCC(Oc1ccc(OC(F)(F)F)cc1)C(=O)N1CC(=O)Nc2c(C)ccnc21` (centres unmarked) [Example 29, optical active form of 8-methyl-4-(2-(4-(trifluoromethoxy)phenoxy)butanoyl)-3,4-dihydropyrido[2,3-b]pyrazin-2(1H)-one], which inhibition at 10 µM is on record?
**A.** Its inhibition at 10 µM is 99%.

**Q.** How did the inhibition at 10 µM turn out when `CCC(Oc1ccc(OC(F)(F)F)cc1)C(=O)N1CC(=O)Nc2ccc(-c3ccn(C)n3)nc21` (centres unmarked) [Example 132, optical active form of 6-(1-methyl-1H-pyrazol-3-yl)-4-(2-(4-(trifluoromethoxy)phenoxy)butanoyl)-3,4-dihydropyrido[2,3-b]pyrazin-2(1H)-one] was run?
**A.** The inhibition at 10 µM was 100%.

**Q.** `CCC(Oc1ccc(OC(F)(F)F)cc1)C(=O)N1CC(=O)Nc2cc(C)cnc21` (centres unmarked) [Example 6, 7-methyl-4-(2-(4-(trifluoromethoxy)phenoxy)butanoyl)-3,4-dihydropyrido[2,3-b]pyrazin-2(1H)-one] was tested. Which inhibition at 10 µM did it give?
**A.** Its inhibition at 10 µM is 100%.

**Q.** For `CCC(Oc1ccc(OC(F)(F)F)cc1)C(=O)N1CC(=O)Nc2cccnc21` (centres unmarked) [Example 3, optical active form of 4-(2-(4-(trifluoromethoxy)phenoxy)butanoyl)-3,4-dihydropyrido[2,3-b]pyrazin-2 (1H)-one], which inhibition at 10 µM is on record?
**A.** The inhibition at 10 µM was 100%.

**Q.** How did the inhibition at 10 µM turn out when `CCC(Oc1ccc(OC(F)(F)F)cc1)C(=O)N1CC(=O)Nc2ccc(C)nc21` (centres unmarked) [Example 28, optical active form of 6-methyl-4-(2-(4-(trifluoromethoxy)phenoxy)butanoyl)-3,4-dihydropyrido[2,3-b]pyrazin-2(1H)-one] was run?
**A.** The inhibition at 10 µM was 99%.

**Q.** With `CCC(Oc1ccc(S(=O)(=O)C(F)(F)F)cc1)C(=O)N1CC(=O)Nc2cccnc21` (centres unmarked) [Example 75, 4-(2-(4-((trifluoromethyl)sulfonyl)phenoxy)butanoyl)-3,4-dihydropyrido[2,3-b]pyrazin-2(1H)-one] as the molecule, how does the inhibition at 10 µM read?
**A.** The inhibition at 10 µM was 95%.

**Q.** Which inhibition at 10 µM does the source give for `CC(C)C(Oc1ccc(C(F)(F)F)cc1)C(=O)N1CC(=O)Nc2cccnc21` (centres unmarked) [Example 21, 4-(3-methyl-2-(4-(trifluoromethyl)phenoxy)butanoyl)-3,4-dihydropyrido[2,3-b]pyrazin-2(1H)-one] here?
**A.** The inhibition at 10 µM was 98%.

**Q.** For `CCC(Oc1ccc(-n2cccn2)cc1)C(=O)N1CC(=O)Nc2cccnc21` (centres unmarked) [Example 55, 4-(2-(4-(1H-pyrazol-1-yl)phenoxy)butanoyl)-3,4-dihydropyrido[2,3-b]pyrazin-2(1H)-one], which inhibition at 10 µM is on record?
**A.** Its inhibition at 10 µM is 99%.
